System: Plasmodium berghei
Test: Luciferase/luciferin-expressing antifolate-resistant parasites were used to infect a culture of HepG2 cells that were pre-incubated with compounds. Infected hepatocytes emit light due to the luciferase reaction. Assay results are presented as the percent inhibition of light emission compared to control. […]
Format: functional
Conditions: sporozoite; for IC90: read-out: LUCIFERASE INFECTION ASSAY - IC90
[1] = read-out: LUCIFERASE INFECTION ASSAY - IC50

Compound	IC90 [µM]	IC50 [1] [µM]	further results
C=CCn1c(C)cc(C(=O)CSc2nc3ccccc3s2)c1C	0.221		IC50 (PBLUC_HILL_SLOPE 3.3, PBLUC_R_SQUARED 0.342, read-out: LUCIFERASE INFECTION ASSAY - IC50): 0.113 µM
CCn1c(SCc2csc(N(C(C)=O)c3cccc(C)c3)n2)nc2ccccc2c1=O	> 10		IC50 (PBLUC_HILL_SLOPE 13.6, PBLUC_R_SQUARED 0.153, read-out: LUCIFERASE INFECTION ASSAY - IC50): > 10 µM
O=C(CC12CC3CC(CC(C3)C1)C2)Nc1ccc(C(F)(F)F)cc1	> 9.78	> 9.78	
FC(F)(F)c1cnc(-n2cccc2/C=N/Nc2nc3ccccc3nc2C(F)(F)F)c(Cl)c1	> 6.81		IC50 (FFLUC_HILL_SLOPE 4.66, FFLUC_R_SQUARED 0.46, HEPG2TOX_HILL_SLOPE 16.5, HEPG2TOX_R_SQUARED 0.459, PBLUC_HILL_SLOPE 3.99, PBLUC_R_SQUARED 0.83, read-out: LUCIFERASE INFECTION ASSAY - IC50): 4.16 µM
CC(C)(C)c1csc(NC(=O)c2ccc(Br)cc2)n1	8.74		IC50 (HEPG2TOX_HILL_SLOPE 15.1, HEPG2TOX_R_SQUARED 0.819, PBLUC_HILL_SLOPE 4.4, PBLUC_R_SQUARED 0.25, read-out: LUCIFERASE INFECTION ASSAY - IC50): 5.3 µM
NC(=O)c1c(NC(=O)/C=C/c2cn(-c3ccccc3)nc2-c2cccnc2)sc2c1CCCC2	> 10	> 10	
COc1ccc2c(-c3ccccc3)cc(SCC(=O)Nc3sccc3C(N)=O)nc2c1	9.16	7.85	
CCNC(=O)c1nn(Cc2ccccc2)c2c1CC(NCc1ccc(Cl)s1)CC2 (stereo not drawn)	> 7.69		IC50 (PBLUC_HILL_SLOPE 15.3, PBLUC_R_SQUARED 0.172, read-out: LUCIFERASE INFECTION ASSAY - IC50): 7.58 µM
O=C(COc1ccccc1C(=O)N/N=C/c1ccccc1O)Nc1ccc(SC(F)F)cc1	1.53		IC50 (HEPG2TOX_HILL_SLOPE 0.754, HEPG2TOX_R_SQUARED 0.891, PBLUC_HILL_SLOPE 11.1, PBLUC_R_SQUARED 0.496, read-out: LUCIFERASE INFECTION ASSAY - IC50): 1.26 µM
Cc1ccc(C)c(NC(=O)CN(C)C(=O)CN2CCN(c3ccccc3)CC2)c1	> 10	> 10	
COc1ccc(C2=NN=C/C2=N\Nc2cc(C)cc(C)c2)cc1	4.13		IC50 (HEPG2TOX_HILL_SLOPE 4.29, HEPG2TOX_R_SQUARED 0.94, PBLUC_HILL_SLOPE 14.3, PBLUC_R_SQUARED 0.412, read-out: LUCIFERASE INFECTION ASSAY - IC50): 3.54 µM
O=c1c(Cl)c(Cl)cnn1Cc1nnc(-c2ccc(Cl)cc2)o1	> 10		IC50 (FFLUC_HILL_SLOPE 3.65, FFLUC_R_SQUARED 0.9, HEPG2TOX_HILL_SLOPE 4.48, HEPG2TOX_R_SQUARED 0.522, PBLUC_HILL_SLOPE 7.32, PBLUC_R_SQUARED 0.182, read-out: LUCIFERASE INFECTION ASSAY - IC50): 7.44 µM
N#C/C(=C\c1sccc1Oc1ccccc1)S(=O)(=O)c1ccc(C(F)(F)F)cn1	> 7.56		IC50 (FFLUC_HILL_SLOPE 0.259, FFLUC_R_SQUARED 0.0664, read-out: LUCIFERASE INFECTION ASSAY - IC50): > 7.56 µM
Cc1ccc(/C=C/c2ccc3ccccc3[n+]2C)cc1	> 8.52		IC50 (PBLUC_HILL_SLOPE 12.2, PBLUC_R_SQUARED 0.0729, read-out: LUCIFERASE INFECTION ASSAY - IC50): 8.36 µM
O=C(CN1CC=C(c2ccccc2)CC1)Nc1ccnn1C1CCCC1	> 10		IC50 (HEPG2TOX_HILL_SLOPE 1.62, HEPG2TOX_R_SQUARED 0.847, PBLUC_HILL_SLOPE 1.87, PBLUC_R_SQUARED 0.673, read-out: LUCIFERASE INFECTION ASSAY - IC50): 5.98 µM
Cc1cc(C2=NN/C(=N\C(C)(C)C)SC2)c(C)n1C(C)C	> 10		IC50 (PBLUC_HILL_SLOPE 15.1, PBLUC_R_SQUARED 0.242, read-out: LUCIFERASE INFECTION ASSAY - IC50): 9.12 µM
CC(C)(C)c1ccc(C(=O)Nc2cc(Cl)cc(Cl)c2)cc1	> 10.2	> 10.2	
CN(CC(=O)Nc1ccc(OC(F)(F)F)cc1)Cc1cc(=O)n2c([nH]c3ccccc32)c1C#N	> 10		IC50 (HEPG2TOX_HILL_SLOPE 2.12, HEPG2TOX_R_SQUARED 0.883, PBLUC_HILL_SLOPE 1.9, PBLUC_R_SQUARED 0.564, read-out: LUCIFERASE INFECTION ASSAY - IC50): 4.93 µM
Cn1ccc2cc(-c3cnc4cnc(-c5ccc(C(=O)N6CCOCC6)cc5)cn34)ccc21	> 7.54		IC50 (HEPG2TOX_HILL_SLOPE 0.0832, HEPG2TOX_R_SQUARED 0.45, PBLUC_HILL_SLOPE 3.74, PBLUC_R_SQUARED 0.552, read-out: LUCIFERASE INFECTION ASSAY - IC50): 5.41 µM
Cc1cccc2sc(N(Cc3ccccc3)C(=O)C3CCN(C(=O)C(C)(C)C)CC3)nc12	> 10	> 10	

Compound	IC90 [µM]	IC50 [1] [µM]	further results
Cc1c(-n2nnnc2SCC(C)C)c(=O)n(-c2ccccc2)n1C	> 10	> 10	
CCCN(CCC)S(=O)(=O)c1ccc(-n2ncc(Cl)c(Cl)c2=O)cc1	2.67		IC50 (FFLUC_HILL_SLOPE 2.22, FFLUC_R_SQUARED 0.495, HEPG2TOX_HILL_SLOPE 4.03, HEPG2TOX_R_SQUARED 0.969, PBLUC_HILL_SLOPE 5.8, PBLUC_R_SQUARED 0.662, read-out: LUCIFERASE INFECTION ASSAY - IC50): 1.83 µM
O=C(NC1CC1)c1csc(C(O)c2cccc(C(F)(F)F)c2)n1 (stereo not drawn)	1.14		IC50 (HEPG2TOX_HILL_SLOPE 2.89, HEPG2TOX_R_SQUARED 0.879, PBLUC_HILL_SLOPE 2.14, PBLUC_R_SQUARED 0.663, read-out: LUCIFERASE INFECTION ASSAY - IC50): 0.408 µM
Cc1nc(C(=O)N2CCC(C)(C(=O)NS(=O)(=O)C3CC3)C2)c(C)o1 (stereo not drawn)	> 9.28	> 9.28	
CC(C)c1c(C(=O)NNC(=O)c2ccc3ccccc3n2)cnn1-c1ccccc1	3.77		IC50 (HEPG2TOX_HILL_SLOPE 12.8, HEPG2TOX_R_SQUARED 0.528, PBLUC_HILL_SLOPE 15.6, PBLUC_R_SQUARED 0.425, read-out: LUCIFERASE INFECTION ASSAY - IC50): 3.28 µM
COc1ccc(C(=O)NN(C)c2nc3ccccc3nc2C(F)(F)F)cc1	4.32		IC50 (HEPG2TOX_HILL_SLOPE 1.65, HEPG2TOX_R_SQUARED 0.987, PBLUC_HILL_SLOPE 2.07, PBLUC_R_SQUARED 0.843, read-out: LUCIFERASE INFECTION ASSAY - IC50): 1.49 µM
Cc1nn(-c2ccccc2)c(C)c1C(=O)C(=O)NC(C)c1ccc(S(N)(=O)=O)cc1 (stereo not drawn)	> 10	> 10	
Cc1ccc2[nH]c3c(c2c1)CCCC3NCCCN(C)C (stereo not drawn)	> 11.5		IC50 (HEPG2TOX_HILL_SLOPE 41.7, HEPG2TOX_R_SQUARED 0.689, PBLUC_HILL_SLOPE 2.08, PBLUC_R_SQUARED 0.555, read-out: LUCIFERASE INFECTION ASSAY - IC50): 4.94 µM
Cc1csc2nc(COC(=O)c3ccc(-c4nc5ccccc5s4)o3)cc(=O)n12	> 10	> 10	
CCOC(=O)c1c(C)nn(-c2ccc(NC(=O)c3cccs3)cc2)c1C	5.59		IC50 (PBLUC_HILL_SLOPE 1.61, PBLUC_R_SQUARED 0.613, read-out: LUCIFERASE INFECTION ASSAY - IC50): 1.43 µM
CC(C)Oc1cccc(Nc2nccc3[nH]c(-c4cccc(F)c4)cc23)c1	> 10	1.49	
CCOc1ncccc1C(=O)Nc1ccc(NC(=O)C2CC2)cc1C(F)(F)F	> 10	> 10	
CN(c1ccccc1)S(=O)(=O)c1cccc(C(=O)Nc2ccc(-c3cn4c(n3)CCC4)cc2)c1	> 10	> 10	
N#Cc1[nH]c2ccc(Cl)cc2c1-c1ccccc1	> 13.1	> 13.1	
Clc1ccc(-c2cnc3ccc(NCc4ccc5c(c4)OCO5)nn23)cc1	> 8.71	> 8.71	
CCCNC(=O)/C(=C\c1cccc(Br)c1)c1nc2ccccc2[nH]1	9.54		IC50 (HEPG2TOX_HILL_SLOPE 11.6, HEPG2TOX_R_SQUARED 0.535, PBLUC_HILL_SLOPE 4.15, PBLUC_R_SQUARED 0.775, read-out: LUCIFERASE INFECTION ASSAY - IC50): 5.62 µM
O=C(Nc1ccc(F)cc1F)c1cc(Cl)cc(Cl)c1O	> 10.4		IC50 (PBLUC_HILL_SLOPE 2.53, PBLUC_R_SQUARED 0.435, read-out: LUCIFERASE INFECTION ASSAY - IC50): 4.75 µM
CN(C)c1ccc(CNc2nccc3nc(-c4ccc(F)c(F)c4)[nH]c23)cc1	9.24		IC50 (HEPG2TOX_HILL_SLOPE 2.98, HEPG2TOX_R_SQUARED 0.951, PBLUC_HILL_SLOPE 0.962, PBLUC_R_SQUARED 0.864, read-out: LUCIFERASE INFECTION ASSAY - IC50): 0.941 µM
O=C1N(CCCc2cccnc2)C(=O)C2(CCN(Cc3ccsc3)CC2)N1Cc1ccccc1	> 6.95	> 6.95	
